Experimental data reported in ChEMBL document CHEMBL1909046, “DrugMatrix in vitro pharmacology data”.

How the values were obtained:
[1] = target: T1, Alpha-1D adrenergic receptor (Homo sapiens, UniProt P25100); format: cell membranes, HEK293, Membrane; also: in other assays of this panel Not Active means under 50% inhibition at 10 µM
T1 sequence (P25100 whole entry): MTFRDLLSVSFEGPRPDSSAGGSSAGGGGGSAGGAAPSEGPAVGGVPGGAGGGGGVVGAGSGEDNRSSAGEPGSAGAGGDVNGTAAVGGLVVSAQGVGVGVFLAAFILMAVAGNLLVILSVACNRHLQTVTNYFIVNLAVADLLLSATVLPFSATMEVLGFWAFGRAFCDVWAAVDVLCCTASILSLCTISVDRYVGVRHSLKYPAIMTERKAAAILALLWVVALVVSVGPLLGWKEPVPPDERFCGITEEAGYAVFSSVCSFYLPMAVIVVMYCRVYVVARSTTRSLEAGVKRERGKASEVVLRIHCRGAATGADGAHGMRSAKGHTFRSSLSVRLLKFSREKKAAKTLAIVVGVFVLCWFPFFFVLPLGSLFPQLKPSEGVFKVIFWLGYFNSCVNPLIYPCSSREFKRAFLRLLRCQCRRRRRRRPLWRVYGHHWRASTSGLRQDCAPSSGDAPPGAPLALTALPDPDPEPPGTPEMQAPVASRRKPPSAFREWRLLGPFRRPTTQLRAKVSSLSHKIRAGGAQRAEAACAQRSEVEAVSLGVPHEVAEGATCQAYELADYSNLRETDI

[2] = target: Vascular endothelial growth factor receptor 1 (Homo sapiens, UniProt P17948); format: cell-based; conditions: huvec; also: in other assays of this panel Not Active means under 50% inhibition at 10 µM
Sequence of Vascular endothelial growth factor receptor 1 (P17948 whole entry): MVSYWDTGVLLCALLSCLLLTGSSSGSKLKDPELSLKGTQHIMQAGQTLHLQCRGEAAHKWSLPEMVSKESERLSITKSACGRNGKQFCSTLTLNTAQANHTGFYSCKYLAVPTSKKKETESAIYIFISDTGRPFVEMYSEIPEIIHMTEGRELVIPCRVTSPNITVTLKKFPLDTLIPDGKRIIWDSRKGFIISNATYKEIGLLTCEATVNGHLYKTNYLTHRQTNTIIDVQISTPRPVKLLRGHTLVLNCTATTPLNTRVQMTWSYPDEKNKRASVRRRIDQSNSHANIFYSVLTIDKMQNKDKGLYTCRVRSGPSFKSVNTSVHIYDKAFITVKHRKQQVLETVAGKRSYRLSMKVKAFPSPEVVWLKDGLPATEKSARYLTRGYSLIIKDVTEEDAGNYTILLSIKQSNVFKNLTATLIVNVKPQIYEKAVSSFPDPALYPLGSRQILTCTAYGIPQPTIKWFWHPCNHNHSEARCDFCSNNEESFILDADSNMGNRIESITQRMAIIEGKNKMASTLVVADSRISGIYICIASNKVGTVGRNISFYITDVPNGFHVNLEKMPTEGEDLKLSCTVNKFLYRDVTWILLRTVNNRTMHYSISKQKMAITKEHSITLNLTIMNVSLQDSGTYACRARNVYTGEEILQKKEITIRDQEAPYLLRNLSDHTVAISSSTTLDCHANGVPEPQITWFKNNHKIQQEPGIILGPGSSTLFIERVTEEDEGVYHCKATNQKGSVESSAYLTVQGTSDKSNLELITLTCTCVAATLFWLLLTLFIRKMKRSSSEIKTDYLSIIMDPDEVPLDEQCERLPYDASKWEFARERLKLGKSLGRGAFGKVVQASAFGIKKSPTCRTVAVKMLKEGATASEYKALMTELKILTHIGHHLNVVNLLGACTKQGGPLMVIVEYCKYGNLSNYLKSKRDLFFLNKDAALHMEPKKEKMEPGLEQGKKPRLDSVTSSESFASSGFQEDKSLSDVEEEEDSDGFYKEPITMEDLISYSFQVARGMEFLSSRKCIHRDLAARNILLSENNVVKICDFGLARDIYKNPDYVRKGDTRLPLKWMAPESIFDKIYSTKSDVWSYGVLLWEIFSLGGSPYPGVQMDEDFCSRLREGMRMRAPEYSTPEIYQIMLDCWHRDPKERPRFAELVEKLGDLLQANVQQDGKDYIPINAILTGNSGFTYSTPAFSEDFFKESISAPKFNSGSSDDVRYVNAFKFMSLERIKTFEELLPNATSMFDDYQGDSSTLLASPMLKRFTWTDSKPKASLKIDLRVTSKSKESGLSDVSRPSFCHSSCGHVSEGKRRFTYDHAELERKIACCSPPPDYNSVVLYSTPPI

[3] = target: Sodium-dependent dopamine transporter (Homo sapiens, UniProt Q01959); assay: DRUGMATRIX: Dopamine Transporter radioligand binding (ligand: [125I] RTI-55); format: cell membranes, CHO-K1, Membrane; conditions: Not Active = under 50% inhibition at 10 µM
Sequence of Sodium-dependent dopamine transporter (Q01959 whole entry): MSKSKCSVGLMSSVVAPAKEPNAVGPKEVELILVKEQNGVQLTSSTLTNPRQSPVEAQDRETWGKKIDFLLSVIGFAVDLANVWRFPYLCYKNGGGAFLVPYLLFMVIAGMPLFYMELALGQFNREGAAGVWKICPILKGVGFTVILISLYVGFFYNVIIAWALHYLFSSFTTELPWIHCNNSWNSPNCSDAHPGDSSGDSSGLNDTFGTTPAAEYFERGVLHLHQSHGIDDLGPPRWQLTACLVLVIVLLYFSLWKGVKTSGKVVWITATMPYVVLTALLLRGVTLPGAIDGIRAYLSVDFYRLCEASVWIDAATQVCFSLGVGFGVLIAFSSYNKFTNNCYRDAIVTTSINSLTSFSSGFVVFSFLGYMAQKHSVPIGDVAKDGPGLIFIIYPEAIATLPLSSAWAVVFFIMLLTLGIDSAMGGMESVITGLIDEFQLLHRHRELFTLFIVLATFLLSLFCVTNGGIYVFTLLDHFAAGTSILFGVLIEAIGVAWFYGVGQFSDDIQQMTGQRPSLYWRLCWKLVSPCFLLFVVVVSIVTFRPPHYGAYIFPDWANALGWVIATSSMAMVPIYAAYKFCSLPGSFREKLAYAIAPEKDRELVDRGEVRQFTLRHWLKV

[4] = DRUGMATRIX: Imidazoline I2, Central radioligand binding (ligand: [3H] Idazoxan); format: cell membranes, Rattus norvegicus, Wistar, Cerebral cortex, Membrane; conditions: Not Active = under 50% inhibition at 10 µM
Nitric oxide synthase 1 = Nitric oxide synthase 1 (Rattus norvegicus, UniProt P29476); format: tissue-based, Cerebellum; also: in other assays of this panel Not Active means under 50% inhibition at 10 µM
Sequence of Nitric oxide synthase 1 (P29476 whole entry): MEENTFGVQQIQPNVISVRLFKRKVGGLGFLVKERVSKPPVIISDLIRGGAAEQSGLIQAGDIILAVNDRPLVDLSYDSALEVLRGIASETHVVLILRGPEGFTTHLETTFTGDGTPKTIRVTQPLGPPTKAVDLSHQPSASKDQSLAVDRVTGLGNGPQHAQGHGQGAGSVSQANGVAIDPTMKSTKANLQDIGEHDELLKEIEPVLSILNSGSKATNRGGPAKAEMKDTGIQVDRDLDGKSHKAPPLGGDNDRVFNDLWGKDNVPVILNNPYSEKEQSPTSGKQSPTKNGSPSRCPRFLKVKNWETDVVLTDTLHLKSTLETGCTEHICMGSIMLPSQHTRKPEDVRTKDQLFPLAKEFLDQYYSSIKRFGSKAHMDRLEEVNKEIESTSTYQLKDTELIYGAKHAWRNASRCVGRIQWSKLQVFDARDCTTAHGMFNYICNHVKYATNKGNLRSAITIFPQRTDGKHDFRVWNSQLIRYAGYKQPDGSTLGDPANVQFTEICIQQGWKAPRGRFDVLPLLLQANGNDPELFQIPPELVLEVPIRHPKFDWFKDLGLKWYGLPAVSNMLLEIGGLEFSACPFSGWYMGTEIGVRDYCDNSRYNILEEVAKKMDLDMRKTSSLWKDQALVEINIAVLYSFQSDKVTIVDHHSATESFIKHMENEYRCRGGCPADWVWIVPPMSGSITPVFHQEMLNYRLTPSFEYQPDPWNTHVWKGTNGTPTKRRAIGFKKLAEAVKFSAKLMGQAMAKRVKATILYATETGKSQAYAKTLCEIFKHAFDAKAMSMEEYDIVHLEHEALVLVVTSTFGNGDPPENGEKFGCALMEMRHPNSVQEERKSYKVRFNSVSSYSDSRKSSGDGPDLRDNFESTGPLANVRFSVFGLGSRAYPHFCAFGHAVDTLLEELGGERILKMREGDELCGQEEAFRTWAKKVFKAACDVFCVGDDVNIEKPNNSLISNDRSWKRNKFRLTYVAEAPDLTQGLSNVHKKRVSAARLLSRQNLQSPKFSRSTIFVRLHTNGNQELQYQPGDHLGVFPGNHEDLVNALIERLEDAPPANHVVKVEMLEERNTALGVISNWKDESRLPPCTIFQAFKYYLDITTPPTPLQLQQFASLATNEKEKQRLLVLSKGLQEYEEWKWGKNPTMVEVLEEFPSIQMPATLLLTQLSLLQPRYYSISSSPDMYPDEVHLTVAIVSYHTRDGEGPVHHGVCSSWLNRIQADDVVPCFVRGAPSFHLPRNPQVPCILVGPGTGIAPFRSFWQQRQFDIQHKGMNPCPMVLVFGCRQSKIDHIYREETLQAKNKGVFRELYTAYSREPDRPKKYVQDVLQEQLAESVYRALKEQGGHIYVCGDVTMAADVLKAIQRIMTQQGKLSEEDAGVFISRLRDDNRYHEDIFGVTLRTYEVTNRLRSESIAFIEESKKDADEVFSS

Glucocorticoid receptor = target: T2, Glucocorticoid receptor (Homo sapiens, UniProt P04150); conditions: hela s3; also: in other assays of this panel Not Active means under 50% inhibition at 10 µM
T2 sequence (P04150 whole entry): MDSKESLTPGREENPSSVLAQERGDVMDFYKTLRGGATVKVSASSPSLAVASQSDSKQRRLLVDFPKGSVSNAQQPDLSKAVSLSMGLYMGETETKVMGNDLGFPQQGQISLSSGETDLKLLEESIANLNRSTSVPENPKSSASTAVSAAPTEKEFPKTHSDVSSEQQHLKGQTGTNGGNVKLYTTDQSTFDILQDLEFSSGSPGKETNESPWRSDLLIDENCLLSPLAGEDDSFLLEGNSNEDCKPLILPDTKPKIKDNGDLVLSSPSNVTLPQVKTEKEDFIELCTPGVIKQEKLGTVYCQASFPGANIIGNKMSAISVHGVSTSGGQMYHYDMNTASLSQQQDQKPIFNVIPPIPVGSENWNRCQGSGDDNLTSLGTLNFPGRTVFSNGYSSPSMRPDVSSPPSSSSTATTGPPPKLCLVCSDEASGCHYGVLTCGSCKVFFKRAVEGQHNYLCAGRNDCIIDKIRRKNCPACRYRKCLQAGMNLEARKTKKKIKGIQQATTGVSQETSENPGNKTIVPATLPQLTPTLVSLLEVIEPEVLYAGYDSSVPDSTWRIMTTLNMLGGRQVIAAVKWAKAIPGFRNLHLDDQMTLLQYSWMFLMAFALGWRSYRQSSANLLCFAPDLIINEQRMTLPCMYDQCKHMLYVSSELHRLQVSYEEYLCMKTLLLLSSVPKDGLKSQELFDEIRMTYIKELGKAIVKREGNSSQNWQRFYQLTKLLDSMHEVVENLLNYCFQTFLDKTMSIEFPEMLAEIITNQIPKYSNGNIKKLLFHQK

COc1ccc(Cl)cc1C(=O)NCCc1ccc(S(=O)(=O)NC(=O)NC2CCCCC2)cc1 [GLYBURIDE]
Not Active: IC50 ([1]; hek293) | IC50 [2] | IC50 ([3]; cho-k1) | IC50 [4] | Ki [4] | IC50 (Nitric oxide synthase 1)

CHROMIC CHLORIDE
Not Active: IC50 ([1]; hek293) | Ki ([1]; hek293) | IC50 [2] | Ki [2] | IC50 ([3]; cho-k1) | Ki ([3]; cho-k1) | IC50 [4] | Ki [4] | IC50 (Nitric oxide synthase 1) | Ki (Nitric oxide synthase 1) | IC50 (Glucocorticoid receptor) | Ki (Glucocorticoid receptor)

CCN1C[C@]2(COC)[C@H](O)C[C@H](OC)[C@@]34[C@@H]5C[C@@]6(O)[C@H](OC(=O)c7ccccc7)[C@@H]5[C@@](OC(C)=O)([C@@H]([C@H](OC)[C@H]23)[C@@H]14)[C@@H](O)[C@@H]6OC [ACONITINE]
Not Active: IC50 ([1]; hek293) | IC50 [2] | IC50 ([3]; cho-k1) | IC50 [4] | Ki [4] | IC50 (Nitric oxide synthase 1)

O=C(O)CCc1nc(-c2ccccc2)c(-c2ccccc2)o1 [OXAPROZIN]
Not Active: IC50 ([1]; hek293) | IC50 [2] | IC50 ([3]; cho-k1) | IC50 [4] | Ki [4] | IC50 (Nitric oxide synthase 1) | IC50 (Glucocorticoid receptor)

Cc1ccnc2c1NC(=O)c1cccnc1N2C1CC1 [NEVIRAPINE]
Not Active: IC50 ([1]; hek293) | IC50 [2] | IC50 ([3]; cho-k1) | IC50 [4] | Ki [4] | IC50 (Nitric oxide synthase 1) | IC50 (Glucocorticoid receptor)

Clc1cc(Cl)c(OCC#CI)cc1Cl [HALOPROGIN]
1.97 µM: IC50 ([3]; read-out: IC50)
Not Active: IC50 ([1]; hek293) | IC50 [2] | IC50 [4] | Ki [4] | IC50 (Nitric oxide synthase 1) | IC50 (Glucocorticoid receptor)
1.56 µM: Ki ([3]; read-out: Ki)

COc1ccccc1OCCNCC(O)COc1cccc2[nH]c3ccccc3c12 (stereo not given) [CARVEDILOL]
0.845 µM: IC50 ([3]; read-out: IC50)
Not Active: IC50 [2] | IC50 (Nitric oxide synthase 1) | IC50 (Glucocorticoid receptor)
1.28 µM: Ki ([4]; read-out: Ki)
0.671 µM: Ki ([3]; read-out: Ki)
1.92 µM: IC50 ([4]; read-out: IC50)
0.0018 µM: IC50 ([1]; read-out: IC50)
0.000883 µM: Ki ([1]; read-out: Ki)

CCN1CCN(c2cc3c(cc2F)c(=O)c(C(=O)O)cn3C2CC2)CC1 [ENROFLOXACIN]
Not Active: IC50 ([1]; hek293) | IC50 [2] | IC50 ([3]; cho-k1) | IC50 [4] | Ki [4] | IC50 (Nitric oxide synthase 1) | IC50 (Glucocorticoid receptor)

POVIDONE
Not Active: IC50 ([1]; hek293) | Ki ([1]; hek293) | IC50 [2] | Ki [2] | IC50 ([3]; cho-k1) | Ki ([3]; cho-k1) | IC50 [4] | Ki [4] | IC50 (Nitric oxide synthase 1) | Ki (Nitric oxide synthase 1) | IC50 (Glucocorticoid receptor) | Ki (Glucocorticoid receptor)

C=C(Cl)Cl [1,1-DICHLOROETHENE]
Not Active: IC50 ([1]; hek293) | IC50 [2] | IC50 ([3]; cho-k1) | IC50 [4] | Ki [4] | IC50 (Nitric oxide synthase 1) | IC50 (Glucocorticoid receptor)

C[N+](C)(C)CCOC(N)=O.[Cl-] [CARBACHOL]
Not Active: IC50 ([1]; hek293) | IC50 [2] | IC50 ([3]; cho-k1) | IC50 [4] | Ki [4] | IC50 (Nitric oxide synthase 1)

NS(=O)(=O)c1cc(C(=O)O)c(NCc2ccco2)cc1Cl [FUROSEMIDE]
Not Active: IC50 ([1]; hek293) | IC50 [2] | IC50 ([3]; cho-k1) | IC50 [4] | Ki [4] | IC50 (Nitric oxide synthase 1)

CC(C)NCC(O)COc1ccc(CC(N)=O)cc1 (stereo not given) [ATENOLOL]
Not Active: IC50 ([1]; hek293) | IC50 [2] | IC50 ([3]; cho-k1) | IC50 [4] | Ki [4] | IC50 (Nitric oxide synthase 1)

CC(CN1c2ccccc2Sc2ccccc21)N(C)C (stereo not given) [PROMETHAZINE]
Not Active: IC50 [2] | IC50 ([3]; cho-k1) | IC50 (Nitric oxide synthase 1)
0.183 µM: IC50 ([1]; read-out: IC50)
1.99 µM: IC50 ([4]; read-out: IC50)
0.09 µM: Ki ([1]; read-out: Ki)
1.33 µM: Ki ([4]; read-out: Ki)

CC(C)(c1ccc(O)cc1)c1ccc(O)cc1 [BISPHENOL A]
19 µM: IC50 ([3]; read-out: IC50)
15.1 µM: Ki ([3]; read-out: Ki)
Not Active: IC50 ([1]; hek293) | IC50 [2] | IC50 [4] | Ki [4] | IC50 (Nitric oxide synthase 1)

Cc1cc(C(C)(C)C)c(O)c(C)c1CC1=NCCN1 [OXYMETAZOLINE]
0.018 µM: Ki ([4]; read-out: Ki)
Not Active: IC50 [2] | IC50 ([3]; cho-k1) | IC50 (Nitric oxide synthase 1) | IC50 (Glucocorticoid receptor)
0.027 µM: IC50 ([4]; read-out: IC50)

CC[C@H]1OC(=O)[C@H](C)[C@@H](O[C@H]2C[C@@](C)(OC)[C@@H](O)[C@H](C)O2)[C@H](C)[C@@H](O[C@@H]2O[C@H](C)C[C@H](N(C)C)[C@H]2O)[C@](C)(O)C[C@@H](C)C(=O)[C@H](C)[C@@H](O)[C@]1(C)O [ERYTHROMYCIN]
Not Active: IC50 ([1]; hek293) | IC50 [2] | IC50 ([3]; cho-k1) | IC50 [4] | Ki [4] | IC50 (Nitric oxide synthase 1)

O=C(O)COC(=O)Cc1ccccc1Nc1c(Cl)cccc1Cl [ACECLOFENAC]
Not Active: IC50 ([1]; hek293) | IC50 [2] | IC50 ([3]; cho-k1) | IC50 [4] | Ki [4] | IC50 (Nitric oxide synthase 1)

O=C(O)c1ccccc1 [BENZOIC ACID]
Not Active: IC50 ([1]; hek293) | IC50 [2] | IC50 ([3]; cho-k1) | IC50 [4] | Ki [4] | IC50 (Nitric oxide synthase 1)

C[C@H]1C[C@H]2[C@@H]3CCC4=CC(=O)C=C[C@]4(C)[C@@]3(F)[C@@H](O)C[C@]2(C)[C@@]1(O)C(=O)CO [BETAMETHASONE]
Not Active: IC50 ([1]; hek293) | IC50 [2] | IC50 ([3]; cho-k1) | IC50 [4] | Ki [4] | IC50 (Nitric oxide synthase 1)

Oc1ccccc1 [PHENOL]
Not Active: IC50 ([1]; hek293) | IC50 [2] | IC50 ([3]; cho-k1) | IC50 [4] | Ki [4] | IC50 (Nitric oxide synthase 1)

COc1cc(NC(C)CCCN)c2ncccc2c1 (stereo not given) [PRIMAQUINE]
Not Active: IC50 ([1]; hek293) | IC50 [2] | IC50 ([3]; cho-k1) | IC50 [4] | Ki [4] | IC50 (Nitric oxide synthase 1)

CNC[C@H](O)c1ccc(O)c(O)c1 [EPINEPHRINE]
0.232 µM: IC50 ([4]; read-out: IC50)
Not Active: IC50 [2] | IC50 ([3]; cho-k1) | IC50 (Nitric oxide synthase 1)
0.221 µM: Ki ([1]; read-out: Ki)
0.154 µM: Ki ([4]; read-out: Ki)
0.449 µM: IC50 ([1]; read-out: IC50)

CCN1CCN(C(=O)N[C@@H](C(=O)N[C@@H]2C(=O)N3[C@@H]2SC(C)(C)[C@@H]3C(=O)O)c2ccccc2)C(=O)C1=O [PIPERACILLIN]
Not Active: IC50 ([1]; hek293) | IC50 [2] | IC50 ([3]; cho-k1) | IC50 [4] | Ki [4] | IC50 (Nitric oxide synthase 1)

c1ccc2c(c1)Nc1ccccc1S2 [PHENOTHIAZINE]
18.6 µM: IC50 ([3]; read-out: IC50)
14.8 µM: Ki ([3]; read-out: Ki)
Not Active: IC50 ([1]; hek293) | IC50 [2] | IC50 [4] | Ki [4] | IC50 (Nitric oxide synthase 1)

Cl.NC[C@H]1CC[C@H](C(=O)Oc2ccc(CCC(=O)O)cc2)CC1 [CETRAXATE HYDROCHLORIDE]
Not Active: IC50 ([1]; hek293) | IC50 [2] | IC50 ([3]; cho-k1) | IC50 [4] | Ki [4] | IC50 (Nitric oxide synthase 1)

C#C[C@]1(O)CC[C@H]2[C@@H]3CCC4=CC(=O)CC[C@@H]4[C@H]3CC[C@@]21C [NORETHINDRONE]
Not Active: IC50 ([1]; hek293) | IC50 [2] | IC50 ([3]; cho-k1) | IC50 [4] | Ki [4] | IC50 (Nitric oxide synthase 1)

O=C(O)CO [GLYCOLIC ACID]
Not Active: IC50 ([1]; hek293) | IC50 [2] | IC50 ([3]; cho-k1) | IC50 [4] | Ki [4] | IC50 (Nitric oxide synthase 1)

O=C(NCCN1CCOCC1)c1ccc(Cl)cc1 [MOCLOBEMIDE]
Not Active: IC50 ([1]; hek293) | IC50 [2] | IC50 ([3]; cho-k1) | IC50 [4] | Ki [4] | IC50 (Nitric oxide synthase 1)

CCC1(c2ccccc2)C(=O)NC(=O)NC1=O [PHENOBARBITAL]
Not Active: IC50 ([1]; hek293) | IC50 [2] | IC50 ([3]; cho-k1) | IC50 [4] | Ki [4] | IC50 (Nitric oxide synthase 1)
